Source: patent publication US20140193802A1, “IDENTIFICATION OF AN ALTERED THERAPEUTIC SUSCEPTIBILITY TO ANTI-HCMV COMPOUNDS AND OF A RESISTANCE AGAINST ANTI-HCMV COMPOUNDS” (priority 2012, published 2014)
Where “and” joins values, the source holds several entries; their conditions need not be identical. Equal entries are not always repeated. Where two headings read alike, the source gives them in different places.

Key:
Assay type in all cases: cell-based, human cytomegalovirus (HCMV)
RV-HG UL56-L241P/R369S = assay: GFP-RA, marker transfer mutant; conditions: for EC50: Human betaherpesvirus 5, RV-HG UL56-L241P/R369S, fluorescence reduction assay, mean ± SD, read-out: EC50
Experimental: (§1) HCMV Fluorescence Reduction Assay (GFP-RA)
(§2) The susceptibilities of recombinant HCMV laboratory strains expressing GFP were determined by a GFP-based fluorescence reduction assay. For standard assays, 1.5×10^4 NHDF cells/well were cultured in black 96-well plates (Greiner Bio-One, Germany) and infected with either HCMV-GFP (MOI, 0.1) or RV-HG (MOI, 0.2 to 0.5). After virus adsorption, the virus inoculum was replaced with 200 μl fresh medium. Thereafter, 100 μl medium containing the test compounds was added to wells of horizontal row G, followed by serial 3-fold dilutions up to row A. All drug concentrations were tested at least in duplicate. Wells of the horizontal row H served as the virus control. Plates were incubated at 37° C. for 7 days. The medium was replaced by 200 μl PBS, and GFP units (GFPU) were determined by a charge-coupled-device-camera-based fluorescence detector (FluoBox; Bayer Technology Services GmbH, Leverkusen, Germany), which captures 96 images simultaneously. Drug effects were calculated as a percentage of reduction in GFPU in the presence of each drug concentration compared to the GFPU determined in the absence of drug. EC50 and EC90 values (drug concentrations producing 50% and 90% reduction in GFPU) were calculated using nonlinear regression curve fit with a variable slope. GraphPad Prism 3.02 or 4.0 software (GraphPad Software Inc., La Jolla, Calif.) was used for all analyses.
(§3) The HCMV AD169-derived bacterial artificial chromosome (BAC) pHG served as the backbone for the construction of the mutant viruses. The markerless introduction of point mutations into pHG was done using a two-step recombination protocol according to the en passant method. Briefly, a recombination fragment containing the I-SceI-AphAI cassette from plasmid pEPKan-S was obtained by PCR using primers containing ˜60 bp of homology to the intended integration site in ORF UL56 of BAC pHG and ˜20 bp specific for pEPKan-S. This fragment was electroporated into Escherichia coli GS1783 that harbored the pHG BAC. […] After successful kanamycin selection, all non-HCMV sequences were removed by an intrabacterial ISceI digest and a subsequent second Red recombination, resulting in the scarless repair of the mutated UL56 gene in the background of BAC pHG. The integrity of the generated BACs was confirmed by restriction enzyme digestion and sequencing. To reconstitute virus mutants, the recombinant BACs were transfected into permissive MRC5 cells. At least two independent virus clones per mutation were generated and evaluated.

RV-HG UL56-C325Y = assay: GFP-RA, marker transfer mutant; conditions: for EC50: Human betaherpesvirus 5
Experimental: as §1, §2, §3

RV-HG UL56-V236M = assay: GFP-RA, marker transfer mutant; conditions: for EC50: Human betaherpesvirus 5
Experimental: as §1, §2, §3

RV-HG UL56-R369S = assay: GFP-RA, marker transfer mutant; conditions: for EC50: Human betaherpesvirus 5, RV-HG UL56-R369S, fluorescence reduction assay, mean ± SD, read-out: EC50
Experimental: as §1, §2, §3

RV-HG UL56-V231L = assay: GFP-RA, marker transfer mutant; conditions: for EC50: Human betaherpesvirus 5, RV-HG UL56-V231L, fluorescence reduction assay, mean ± SD, read-out: EC50
Experimental: as §1, §2, §3

RV-HG UL56-R369M = assay: GFP-RA, marker transfer mutant; conditions: for EC50: Human betaherpesvirus 5, RV-HG UL56-R369M, fluorescence reduction assay, mean ± SD, read-out: EC50
Experimental: as §1, §2, §3

RV-HG UL56-L241P = assay: GFP-RA, marker transfer mutant; conditions: for EC50: Human betaherpesvirus 5
Experimental: as §1, §2, §3

RV-HG-UL56 mutants = assay: GFP-RA, drug susceptibility profile of the virus mutants; conditions: fluorescence reduction assays; for BAY 38-4766 and BDCRB with the exception of the strain carrying UL56 R369M
Experimental: as §1, §2
as §3, with “The integrity of the generated BACs was confirmed by restriction enzyme digestion and sequencing.” left out

SMILES	EC50 (RV-HG UL56-L241P/R369S)	Resistance index (RI) = EC50 indicated RV-HG mutant/EC50 RV-HG wt (RV-HG UL56-L241P/R369S; RV-HG UL56-L241P/R369S vs RV-HG wt)	EC50 (RV-HG UL56-C325Y; RV-HG UL56-C325Y, fluorescence reduction assay, mean ± SD, read-out: EC50)	Resistance index (RI) = EC50 indicated RV-HG mutant/EC50 RV-HG wt (RV-HG UL56-C325Y; RV-HG UL56-C325Y vs RV-HG wt)	EC50 (RV-HG UL56-V236M; RV-HG UL56-V236M, fluorescence reduction assay, mean ± SD, read-out: EC50)	Resistance index (RI) = EC50 indicated RV-HG mutant/EC50 RV-HG wt (RV-HG UL56-V236M; RV-HG UL56-V236M vs RV-HG wt)	EC50 (RV-HG UL56-R369S)	Resistance index (RI) = EC50 indicated RV-HG mutant/EC50 RV-HG wt (RV-HG UL56-R369S; RV-HG UL56-R369S vs RV-HG wt)	EC50 (RV-HG UL56-V231L)	Resistance index (RI) = EC50 indicated RV-HG mutant/EC50 RV-HG wt (RV-HG UL56-V231L; RV-HG UL56-V231L vs RV-HG wt)	EC50 (RV-HG UL56-R369M)	Resistance index (RI) = EC50 indicated RV-HG mutant/EC50 RV-HG wt (RV-HG UL56-R369M; RV-HG UL56-R369M vs RV-HG wt)	EC50 (RV-HG UL56-L241P; RV-HG UL56-L241P, fluorescence reduction assay, mean ± SD, read-out: EC50)	Resistance index (RI) = EC50 indicated RV-HG mutant/EC50 RV-HG wt (RV-HG UL56-L241P; RV-HG UL56-L241P vs RV-HG wt)	sensitivity of the RV-HG-UL56 mutants compared with the parental wild-type virus RV-HG (RV-HG-UL56 mutants)	EC50 (RV-HG UL56-C325Y)	EC50 (RV-HG UL56-V236M)	EC50 (RV-HG UL56-L241P)
COc1cccc(N2CCN(C3=Nc4c(F)cccc4[C@H](CC(=O)O)N3c3cc(C(F)(F)F)ccc3OC)CC2)c1 [Letermovir, (S)-{8-fluoro-2-[4-(3-methoxyphenyl)-1-piperazinyl]-3-[2-methoxy-5-(trifluoromethyl)phenyl]-3,4-dihydro-4-quinazolinyl}acetic acid]	5260 nM	1776	26400 ± 8500 nM	8910	70 ± 20 nM	24	140 ± 70 nM	~38 and 48	20 ± 4.7 nM	5	40 ± 15 nM	13	680 ± 240 nM	~160 and 221	resistant			
Nc1nc(O)c2ncn(COC(CO)CO)c2n1 [Ganciclovir]	2860 ± 1160 nM						1960 ± 1090 nM		720 ± 240 nM		1260 ± 640 nM				did not differ	2110 ± 710 nM	1560 ± 330 nM	2110 ± 770 nM
